Source: ChEMBL document CHEMBL1201862, “PubChem BioAssay data set” (2004)
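Cultured in 96-well plates, cells were exposed to test compound for 48 hours across five concentrations. GI50 = concentration required for 50% inhibition of growth.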 The source made the active and inactive calls. No stated cut-off is given here; in the data, active = GI50 up to about 1.1 µM and inactive = higher.

Experiments:
Assay in all cases: NCI tumour cell line growth inhibition, 48 h
HCT-15 = system: HCT-15
NCI-H460 = system: NCI-H460
HCC 2998 = system: HCC 2998
SNB-19 = system: SNB-19
DU-145 = system: DU-145
NCI-H226 = system: NCI-H226
MDA-N = system: MDA-N
SR = system: SR
PC-3 = system: PC-3
CCRF-CEM = system: CCRF-CEM
MCF7 = system: MCF7
Malme-3M = system: Malme-3M
T47D = system: T47D
RXF 393 = system: RXF 393
NCI-H522 = system: NCI-H522
HT-29 = system: HT-29
SN12C = system: SN12C
786-0 = system: 786-0
SF-268 = system: SF-268
TK-10 = system: TK-10

Row | Compound | GI50 (HCT-15) | GI50 (NCI-H460) | GI50 (HCC 2998) | GI50 (SNB-19) | GI50 (DU-145) | GI50 (NCI-H226) | GI50 (MDA-N) | GI50 (SR) | GI50 (PC-3) | GI50 (CCRF-CEM) | GI50 (MCF7) | GI50 (Malme-3M) | GI50 (T47D) | GI50 (RXF 393) | GI50 (NCI-H522) | GI50 (HT-29) | GI50 (SN12C) | GI50 (786-0) | GI50 (SF-268) | GI50 (TK-10)
1 | CCCCn1c(N)c(-c2nc3ccccc3o2)sc1=S | 15.4 µM | 15.8 µM (inactive) | 36.1 µM (inactive) | 41.3 µM (inactive) | 12.4 µM (inactive) | 15.7 µM (inactive) | 15.6 µM (inactive) | 17.7 µM (inactive) | 23.4 µM (inactive) | 32.8 µM (inactive) | 24.7 µM (inactive) | 16.3 µM (inactive) | 19.3 µM (inactive) | 36.7 µM (inactive) | 14.2 µM (inactive) | 27.4 µM (inactive) | 22.1 µM (inactive) | 17.3 µM (inactive) | 16.4 µM (inactive) | 18.3 µM (inactive)
2 | NNC(=O)Nc1nc2ccc(NN)cc2[nH]1 | 31.3 µM | 27.4 µM (inactive) | 18.5 µM (inactive) | 58.5 µM (inactive) | 97.7 µM (inactive) | 20.2 µM (inactive) | 28.2 µM (inactive) | 19.5 µM (inactive) | 34.4 µM (inactive) | 14.6 µM (inactive) | 26.1 µM (inactive) | 59.6 µM (inactive) | 26.4 µM (inactive) | 25 µM (inactive) | 29.6 µM (inactive) | 34.5 µM (inactive) | 42.2 µM (inactive) | 31.3 µM (inactive) | 37.2 µM (inactive) | 36 µM (inactive)
3 | NCCN(CCN)/[N+]([O-])=N/O | > 100 µM | 69.3 µM (inactive) | > 100 µM (inactive) | > 100 µM (inactive) | > 100 µM (inactive) | > 100 µM (inactive) | > 100 µM (inactive) | 91.2 µM (inactive) | > 100 µM (inactive) | 43.6 µM (inactive) | 47.4 µM (inactive) | > 100 µM (inactive) | > 100 µM (inactive) | > 100 µM (inactive) | 93.3 µM (inactive) | > 100 µM (inactive) | > 100 µM (inactive) | > 100 µM (inactive) | > 100 µM (inactive) | > 100 µM (inactive)
4 | CC(C)=CCN1c2ccccc2[C@@]2(CC=C(C)C)CCN(C)[C@@H]12 [(+)-DEBROMOFLUSTRAMINE B] | 25.6 µM | 14.8 µM (inactive) | 13.7 µM (inactive) | 22.3 µM (inactive) | 45.2 µM (inactive) | 44.2 µM (inactive) | 26.5 µM (inactive) | 33.4 µM (inactive) | 27 µM (inactive) | 34.2 µM (inactive) | 17.3 µM (inactive) | 17.7 µM (inactive) | 20.7 µM (inactive) | 28.5 µM (inactive) | 18.6 µM (inactive) | 19.5 µM (inactive) | 27.4 µM (inactive) | 19.2 µM (inactive) | 46.3 µM (inactive) | 35.9 µM (inactive)
5 | Cc1cc(NC(=O)NC(=O)c2ccccc2NC(=O)CN(C)C)ccc1Oc1ncc(Br)cn1 | 3.18 µM | 0.78 µM (active) | 1.22 µM (inactive) | 9.77 µM (inactive) | 2.41 µM (inactive) | 6.76 µM (inactive) | 0.221 µM (active) | 3.24 µM (inactive) | 1.08 µM (active) | 2.26 µM (inactive) | 0.809 µM (active) | 6.84 µM (inactive) | > 100 µM (inactive) | 1.98 µM (inactive) | 1.14 µM (inactive) | 1.61 µM (inactive) | 17.3 µM (inactive) | 3.52 µM (inactive) | 10 µM (inactive) | 21.6 µM (inactive)
6 | CO/N=C1\CC(C)N2C(=O)C(C(C)C)NC(=O)C(NC(=O)c3c4nc5c(C(=O)NC6C(=O)NC(C(C)C)C(=O)N7C(C)CC(O)C7C(=O)N(C)CC(=O)N(C)C(C(C)C)C(=O)OC6C)ccc(C)c5oc-4c(C)c(=O)c3N)C(CO)OC(=O)C(C)N(C)C(=O)CN(C)C(=O)C12 (stereo not given) | 7.01 µM | 0.098 µM (active) | 0.869 µM (active) | 0.684 µM (active) | 1.97 µM (inactive) | 1.05 µM (active) | 0.773 µM (active) | 0.0184 µM (active) | 1.95 µM (inactive) | 0.0703 µM (active) | 0.34 µM (active) | 0.374 µM (active) | 0.574 µM (active) | 0.865 µM (active) | 0.249 µM (active) | 0.526 µM (active) | 0.416 µM (active) | 1.01 µM (active) | 0.986 µM (active) | 5.48 µM (inactive)
7 | Oc1ccc(Cn2c(-c3ccc(O)c(O)c3)nc3ccccc32)cc1O | 7.48 µM | 15.8 µM (inactive) | 13.9 µM (inactive) | 9.2 µM (inactive) | 24.5 µM (inactive) | 7.43 µM (inactive) | 15 µM (inactive) | 3.72 µM (inactive) | 22.1 µM (inactive) | 3.37 µM (inactive) | 30.1 µM (inactive) | 9.12 µM (inactive) | 10.6 µM (inactive) | 29.4 µM (inactive) | 4.67 µM (inactive) | 30.3 µM (inactive) | 10.1 µM (inactive) | 9.44 µM (inactive) | 11.5 µM (inactive) | 9.64 µM (inactive)
8 | CN1CCC(n2[nH]c(-c3ccccc3)c(Cc3ccccc3)c2=O)CC1 [BENZPIPERYLON] | > 100 µM | 49.5 µM (inactive) | > 100 µM (inactive) | > 100 µM (inactive) | 97.3 µM (inactive) | > 100 µM (inactive) | > 100 µM (inactive) | 33.3 µM (inactive) | > 100 µM (inactive) | 37.9 µM (inactive) | > 100 µM (inactive) | 90.8 µM (inactive) | > 100 µM (inactive) | 63 µM (inactive) | > 100 µM (inactive) | 87.9 µM (inactive) | > 100 µM (inactive) | > 100 µM (inactive) | > 100 µM (inactive) | > 100 µM (inactive)
9 | CC(=O)N(C(C)=O)c1ncc(-n2nc(-c3ccccc3)cc2-c2ccccc2)c(-c2ccccc2)n1 | 8.91 µM | > 10 µM (inactive) | > 10 µM (inactive) | > 10 µM (inactive) | > 10 µM (inactive) | > 10 µM (inactive) | 3.15 µM (inactive) | 3.5 µM (inactive) | > 10 µM (inactive) | 9.75 µM (inactive) | 5.07 µM (inactive) | > 10 µM (inactive) | > 10 µM (inactive) | > 10 µM (inactive) | > 10 µM (inactive) | 4.65 µM (inactive) | > 10 µM (inactive) | > 10 µM (inactive) | > 10 µM (inactive) | > 10 µM (inactive)
10 | O=[PH]1c2ccccc2Nc2ccccc21 | 37.1 µM | 53.5 µM (inactive) | > 100 µM (inactive) | > 100 µM (inactive) | 98.6 µM (inactive) | > 100 µM (inactive) | > 100 µM (inactive) | > 100 µM (inactive) | 47.1 µM (inactive) | > 100 µM (inactive) | > 100 µM (inactive) | 80.2 µM (inactive) | > 100 µM (inactive) | > 100 µM (inactive) | 74.3 µM (inactive) | 51.6 µM (inactive) | > 100 µM (inactive) | > 100 µM (inactive) | > 100 µM (inactive) | > 100 µM (inactive)
11 | COC(=O)C1OC(O[C@H]2CC[C@]3(C)[C@H]4CC=C5[C@@H]6CC(C)(C)CC[C@]6(C(=O)OC6OCC(O)C(O)C6OC6OC(C)C(OC7OCC(O)C(O)C7O)C(OC7OCC(O)(CO)C7O)C6O)[C@H](O)C[C@@]5(C)[C@]4(C)CC[C@H]3C2(C)C)C(O)C(O)C1O (stereo not given in full) | 10.3 µM | 16.3 µM (inactive) | 2.29 µM (inactive) | 5.57 µM (inactive) | 8.53 µM (inactive) | 4.23 µM (inactive) | 2.01 µM (inactive) | 2.08 µM (inactive) | 3.85 µM (inactive) | 14.9 µM (inactive) | 1.38 µM (inactive) | 4.14 µM (inactive) | 3.86 µM (inactive) | 10.9 µM (inactive) | 2.14 µM (inactive) | 2.54 µM (inactive) | 1.85 µM (inactive) | 7.45 µM (inactive) | 10 µM (inactive) | 15.9 µM (inactive)
12 | O=C(CCc1ccc(O)c(O)c1)NCCc1ccccc1 | 15.5 µM | > 91.2 µM (inactive) | > 100 µM (inactive) | > 74.5 µM (inactive) | > 88.1 µM (inactive) | 99.8 µM (inactive) | 19 µM (inactive) | 7.16 µM (inactive) | > 37.2 µM (inactive) | 3.17 µM (inactive) | 15.1 µM (inactive) | > 100 µM (inactive) | 34.4 µM (inactive) | > 100 µM (inactive) | 5.6 µM (inactive) | > 45.3 µM (inactive) | > 31.6 µM (inactive) | 31.6 µM (inactive) | > 32.4 µM (inactive) | > 79.8 µM (inactive)
13 | Cc1cc(C)n(-c2nc(-n3nc(C)cc3C)nc(-n3nc(C)cc3C)n2)n1 | 83.8 µM | 33.2 µM (inactive) | > 100 µM (inactive) | > 100 µM (inactive) | > 100 µM (inactive) | 35.8 µM (inactive) | > 100 µM (inactive) | > 100 µM (inactive) | > 100 µM (inactive) | 62.7 µM (inactive) | > 100 µM (inactive) | 37.2 µM (inactive) | > 100 µM (inactive) | > 100 µM (inactive) | > 100 µM (inactive) | > 100 µM (inactive) | > 100 µM (inactive) | > 100 µM (inactive) | > 100 µM (inactive) | 30.1 µM (inactive)
14 | O=C1CCC(=O)N1n1c(Cc2ccccc2)n[nH]c1=O | > 100 µM | > 100 µM (inactive) | > 100 µM (inactive) | > 100 µM (inactive) | > 100 µM (inactive) | > 100 µM (inactive) | > 100 µM (inactive) | > 100 µM (inactive) | > 100 µM (inactive) | > 100 µM (inactive) | > 100 µM (inactive) | > 100 µM (inactive) | > 100 µM (inactive) | > 100 µM (inactive) | > 100 µM (inactive) | > 100 µM (inactive) | > 100 µM (inactive) | > 100 µM (inactive) | > 100 µM (inactive) | > 100 µM (inactive)
